Experimental data as given in patent US8663621B2, “Identification and synthesis of a male-produced pheromone for the neotropical root weevil Diaperpes abbreviatus (coleoptera: curculionidae)” (The United States of America, as Represented by the …, priority 2012, dated 2014).
“Also recorded” adds a separate entry of the source.

What was measured:
[1] = system: Diaprepes abbreviatus antenna (male and female); assay: gas chromatograph-coupled electroantennogram detection (GC-EAD) of antennal response; details: for antennal response (GC-EAD) to peaks of headspace extract: hexane extract of headspace volatiles from adult males and citrus leaves (FIG. 2); for antennal response (GC-EAD): male and female antennae, 50 ng linalool and 100 ng synthetic compound in hexane (FIG. 4)
From the text: In a first assay employed to find an attractive chemical of insect origin, a gas chromatograph-coupled electroantennogram detection (GC-EAD) system was used to analyze male aeration samples. This system included an Agilent 7890A GC equipped with a split/splitless injector, an HP-1 capillary column (approximately 30 m×0.32 mm×0.25 μm, Agilent Technologies, Inc., Santa Clara, Calif., USA), a post column glass Y-tube (Supelco, Bellefonte, Pa., USA) splitter for dividing column effluent in an approximately 1:1 ratio between a flame ionization detector (FID) and a heated (200° C.) EAD transfer line. Two lengths of deactivated column (approximately 0.32 mm ID) were used to carry effluent to the FID and EAD port after the split. At the start of GC-EAD runs, the GC oven temperature was held at about 35° C. for 3 minutes and then increased to about 260° C. at a rate of about 15° C./min and held at about 260° C. for about 10 min. Injector and FID temperatures were set at about 220° C. and about 300° C., respectively. Splitless injection was used with helium as the carrier gas at a flow rate of about 2.3 ml/min. A heated transfer line emptied into a charcoal-filtered, humidified air stream (about 200 ml/min at about 30 cm/sec) that carried the effluent over an antennal preparation. The antennal preparation can be made by plucking the antenna from either a male or female insect (grasping it firmly at the base of the antenna near the head with fine forceps) and placing the antenna between two metal electrodes of a Universal EAG probe, to which small amounts of salt-free electrode gel (Spectra 360, Parker Laboratories, Fairfield, N.J., USA) had been applied. The probe was connected to a type PRG-2 amplifier (Universal EAG probe, Syntech, Hilversum, The Netherlands). The humidified air stream was directed to pass over the antennal preparation generating a signal. […] […] […] […] Antennae from male and female D. abbreviatus were used as detectors to confirm antennal response to the synthetic compound.

[2] = system: Diaprepes abbreviatus antenna (male and female); details: used as co-injected control for antenna viability; cited from earlier work
[3] = system: Diaprepes abbreviatus adults; assay: two-choice olfactometer behavioral bioassay; type: in vivo; details: for Number choosing A (air) / Number choosing B (odor source): A: air vs B: odor source; for No choice (number): moved to but remained in central arena; for No response (number): remained in inlet
Protocol: Behavioral response to the pheromone was tested in an olfactometer (Model 4C, ARS, Inc., Micanopy, Fla. USA) wherein individual weevils (starved for about 24 h) were placed in a glass inlet and allowed to walk upwards into the center of an arena with a balanced, filtered and humidified airflow from two arms oriented at 180° to each other and outfitted with glass reservoirs containing an odor source or blank. The assays were conducted in the dark between about 9 AM and 2 PM; each run was terminated when the weevil moved into one of the glass receptacles or when about 15 min had elapsed. Assays were run in the dark because of a strong phototropic response in this insect (Lapointe and Hall 2009). Weevil position was scored as no-response (remaining in the inlet), no-choice (moving to but remaining in the central arena) or choosing one of the two arms. Responses of unmated approximately 4 to 6-week-old males and females were recorded to various odor sources: fresh young citrus leaves (flush), flush fed upon for about 24 hr by male D. abbreviatus, approximately 30 μg of methyl (E)-3-(2-hydroxyethyl)-4-methyl-2-pentenoate in approximately 10:1 hexanes:ethyl acetate pipetted onto a glass slide, and a clean glass slide. All glass components of the olfactometer were thoroughly washed between runs with warm soap and water, rinsed with methanol and air-dried. Between replications of a given treatment, the arms of the olfactometer used for that treatment were switched to control for bias in the apparatus. The number of weevils choosing a treatment arm was compared with the control arm (clean air) by the G-test (Sokal and Rohlf 1994).

[4] = stability of the pheromone (lactonization; acid, heat, storage); type: physicochemical; details: for stability in acidic medium (lactonization to 2): acid-catalyzed THP removal, CDCl3 with residual acidity
Protocol: At the core of the chosen synthetic route lies a stereoselective carbocupration of α,β-acetylenic esters that was exclusively cis-stereospecific when the reaction was conducted in THF at low temperatures (Corey and Katzenellenbogen 1969, Bourque et al. 1999, Drew et al. 1999). However, a conjugate addition of a heterocuprate, formed in situ from isopropylmagnesium bromide and copper(I) iodide in the presence of N,N,N,N'-tetramethylethylenediamine ([…] et al. 1984), to the acetylenic ester (FIG. 1) proceeded with some loss of stereoselectivity resulting in a mixture of E and Z olefinic esters in an approximately 92:8 ratio. During acid-catalyzed removal of the tetrahydropyranyl (THP) protecting group, the ratio of 1E and 1Z dropped to approximately 86:14 and a considerable amount of lactone 2 was formed, thus indicating instability of the putative pheromone in acidic medium.

Compound: CC(C)=CCC/C(C)=C/CO (single isomer, unassigned) [geraniol, reference compound]
- antennal response (GC-EAD) to peaks of headspace extract [1]: positive antennal responses

Compound: C=CC(C)(O)CCC=C(C)C (single isomer, unassigned) [linalool, reference compound]
- antennal response, previously determined [2]: consistent antennal response
- antennal response (GC-EAD) to peaks of headspace extract [1]: positive antennal responses
- antennal response (GC-EAD) [1]: Both male and female antennae responded

Compound: CC(C)=CCC/C(C)=C/C=O [geranial, reference compound]
- antennal response (GC-EAD) to peaks of headspace extract [1]: positive antennal responses

Compound: CC(C)C1=CC(=O)OCC1 [lactone]
- antennal response (GC-EAD) [1]: No antennal response; also recorded: Neither responded

Compound: COC(=O)/C=C(\CCO)C(C)C [methyl (E)-3-(2-hydroxyethyl)-4-methyl-2-pentenoate]
- antennal response (GC-EAD) to peaks of headspace extract [1]: elicit a response from male and female antennae
- antennal response (GC-EAD) [1]: Both male and female antennae responded
- Number choosing A (air) ([3]; female weevils): 17
- Number choosing B (odor source) ([3]; female weevils): 48
- No choice (number) ([3]; female weevils): 17
- No response (number) ([3]; female weevils): 71
- preference for odor source versus clean air (in words) ([3]; female weevils, α=0.05, G-test): consistently moved upwind more often
- preference for odor source versus clean air (in words) ([3]; female weevils, α=0.05, G-test, listed as synthetic pheromone): more often as compared to clean air
- Number choosing A (air) ([3]; male weevils): 30
- Number choosing B (odor source) ([3]; male weevils): 34
- preference for odor source versus clean air (in words) ([3]; male weevils, listed as pheromone): did not show a clear preference
- preference for odor source versus clean air (in words) ([3]; male weevils, listed as synthetic pheromone): no clear preference
- No choice (number) ([3]; male weevils): 20
- No response (number) ([3]; male weevils): 69
- stability in acidic medium (lactonization to 2) ([4]; listed as 1E): noticeable cyclization of 1E to 2
- stability in acidic medium (lactonization to 2) ([4]; listed as putative pheromone): instability
- thermal stability ([4]; preparative GC with conventional injection port): thermal instability
- storage stability ([4]; purified sample, up to 25° C. in aprotic solvents (benzene, hexane, ethyl acetate)): stores indefinitely

Compound: COC(=O)/C=C(/CCO)C(C)C [methyl (Z)-3-(2-hydroxyethyl)-4-methyl-2-pentenoate]
- antennal response (GC-EAD) [1]: inactive
- antennal response (GC-EAD) ([1]; listed as Z isomer): No antennal response; also recorded: Neither responded
